The structures appear in SMILES notation.

The assay relates to corn seedlings. Kind of assay: Zinc uptake measurements in corn seedlings (foliar spray, ICP-MS). The class given is in vivo. The settings on record: corn seedling aerial tissue 48 hours after spray; normalized to water control (set as 1); average of two trials; ZnSO4 1 lb Zn/acre, Zn-LAS/MSO and Zn-EDTA 0.15 lb Zn/acre, Ca-LAS/MSO 1.07 g/L. The protocol:
In this example, the Zn salt of linear alkylbenzene sulfonate from example 1 was sprayed on corn seedlings that were grown in potting soil and zinc uptake into the plant leaves was measured and compared to uptake of other forms of zinc as described below. The samples that were analyzed were prepared by spraying the leaves with the particular formulation, drying the leaves after spraying, grinding the leaves, digesting them in aqua regia and measuring the concentration of zinc in solution by inductively coupled plasma mass spectrometry (ICP-MS). Spray treatment formulations were prepared as follows, based on an average delivery of 3.3 mL solution per 4 inch square pot (16 in^2 treated area): • a) deionized water only • b) Ca-LAS/MSO: 1.07 g/L in deionized water • c) ZnSO4: 1.02 g/L ZnSO4 in deionized water to approximate the recommended use rate of 1 lb Zn in 20 gallons solution per acre • d) Zn-LAS/MSO (5% w/w Zn, density 1.02 g/mL): 1.07 g/L in deionized water to approximate a use rate of 0.15 lb Zn in 20 gallons solution per acre • e) Zn-EDTA (9% w/w Zn, density 1.31 g/mL): 0.59 g/L in deionized water to approximate the recommended use rate of 0.15 lb Zn in 20 gallons solution per acre.
After 48 hours of incubation, each seedling was cut just above the soil line and the aerial tissue was used for analysis. […]

On to `O=S(=O)([O-])[O-].[Zn+2]` [ZnSO4], for which the “Relative Zinc Concentration” value came to 2.01.

Source of the values: patent US20190161418A1, “OIL-SOLUBLE PLANT MICRONUTRIENTS” (Huntsman Petrochemical LLC, priority 2016, published 2019).
